# Key:
# [1] = tested on: flank organs of Golden Syrian hamsters (androgen-stimulated hair growth); test: Golden Syrian hamster assay (flank organ hair mass after topical application); assay type: in vivo
# From the text: Male intact Golden Syrian hamsters are considered acceptable models for human beard hair growth in that they display oval shaped flank organs, one on each side, each about 8 mm. in major diameter, which grow thick black and coarse hair similar to human beard hair. These organs produce hair in response to androgens in the hamster. To evaluate the effectiveness of a composition including an inhibitor, the flank organs of each of a group of hamsters are depilated by applying a thioglycolate based chemical depilatory (Surgex). To one organ of each animal 25 μl. of vehicle alone once a day is applied, while to the other organ of each animal an equal amount of vehicle containing an inhibitor of a cysteine synthetic pathway enzyme is applied. After thirteen applications (one application per day for five days a week), the flank organs are shaved and the amount of recovered hair (hair mass) from each is weighed. Percent-reduction of hair growth is calculated by subtracting the hair mass (mg) value of the test compound treated side from the hair mass value of the vehicle treated side; the delta value obtained is then divided by the hair mass value of the vehicle treated side, and the resultant number is multiplied by 100.
# The above-described assay will be referred to herein as the "Golden Syrian hamster" assay.
# [2] = tested on: cysteine synthetic pathway intermediates in flank organ hair follicles; test: Amino acid analysis of hamster flank organ hair follicles (Pico-Tag); assay type: in vivo; details: hair follicles of treated flank organs, vehicle A
# Protocol: Hair follicles were isolated from the flank organs which were treated with either an inhibitor of a cysteine pathway enzyme or the carrier without the inhibitor (the control). L-Cystathiorine, homocysteine, and S-adenosyl homocysteine, which are involved in a pathway leading to cysteine synthesis, were measured by an amino acid analysis method. The amino analysis of hamster flank organ hair follicles was carried out using a commercially available system (Pico-Tag; Waters Associates, Inc., Milford, Mass.). Hair follicle amino acids were extracted with 0.1N HCL, an derivatized with phenylisothiocyanate to yield the phenylthiohydantion derivatives of the respective amino acids, which were then separated by C-18 reverse phase chromatography, and quantitated by in-line UV spectrophotometry.
# More specifically, 250-500 μl of 0.1N HCL was added to each flank organ hair follicle sample, followed by treatment with a sonicator device to obtain cell extracts. The cell extracts were centrifuged at 12,000×gfor 5 min, and the recovered supernatant was filtered through 0.45μ filter. The filtrate was vacuum dried under nitrogen using the Pico-Tag work station. Samples were then derivatized with phenylisothiocyanate reagent by the procedure described in the Waters Associates Pico-Tag manual. An aliquot of the derivatized sample was injected on a C-18 reverse phase column (Pico-Tag column) and the elution was carried out with a gradient buffer system. This procedure separated the amino acids L-cystathionine, homocysteine, and S-adenosyl homocysteine from other amino acids present in hair follicle extracts. The amino acid concentrations were determined at UV wavelength 254 nm using an in-line spectrophotometer and a dedicated HPLC control and data analysis system (Waters Associates).
# [3] = topical, dose 10%, vehicle A, pH 4.5, 13 applications
# [4] = topical, dose 20%, vehicle A, pH 7.5, 13 applications
# [5] = topical, dose 20%, vehicle A, pH 8.5, 13 applications
# [6] = Table 2, topical, dose 0.25%, vehicle A, pH 4.5
# [7] = Table 2, topical, dose 0.50%, vehicle A, pH 5.0
# [8] = Table 2, topical, dose 1.00%, vehicle A, pH 5.0
# [9] = Table 2, topical, dose 5.00%, vehicle A, pH 5.0
# [10] = topical, dose 5%, vehicle A, pH 4.5, 13 applications
# [11] = topical, dose 15%, vehicle A, pH 8.0, 13 applications
# [12] = topical, dose 15%, vehicle B, pH 9.5, 13 applications
# [13] = topical, dose 20%, vehicle A, pH 7.0, 13 applications
compound,measurement,setting,value
Nc1ncnc2c1ncn2[C@@H]1O[C@H](CO)[C@@H](O)[C@H]1O [Adenosine],Hair Mass Treated (mg mean ± SEM),[1]; [3],1.140 ± 0.12 mg
same,Percent Inhibition (mean ± SEM),[1]; [3],55.28 ± 4.00%
"NC(C(=O)O)C(F)(F)F (racemic) [3,3,3,-Trifluoro-DL-alanine]",Hair Mass Treated (mg mean ± SEM),[1]; [4],1.110 ± 0.13 mg
same,Percent Inhibition (mean ± SEM),[1]; [4],32.36 ± 8.01%
NNC(=O)c1ccncc1 [Isonicotinic acid hydrazide],Hair Mass Treated (mg mean ± SEM),[1]; [5],1.344 ± 0.18 mg
same,Percent Inhibition (mean ± SEM),[1]; [5],35.13 ± 7.98%
Nc1nccc2c1ncn2[C@@H]1C=C(CO)[C@@H](O)[C@H]1O [3-Deazaneplanocin],"L-Cystathionine, Percent of Untreated Control (100%)","[2]; dose 0.125%, pH 4.5",49%
same,"S-Adenosyl Homocysteine, Percent of Untreated Control (100%)","[2]; dose 0.125%, pH 4.5",144%
same,"L-Cystathionine, Percent of Untreated Control (100%)","[2]; dose 0.250%, pH 4.5",29%
same,"S-Adenosyl Homocysteine, Percent of Untreated Control (100%)","[2]; dose 0.250%, pH 4.5",149%
same,"L-Cystathionine, Percent of Untreated Control (100%)","[2]; dose 0.500%, pH 4.5",12%
same,"S-Adenosyl Homocysteine, Percent of Untreated Control (100%)","[2]; dose 0.500%, pH 4.5",218%
same,Hair Mass Treated,[1]; [6],1.889 ± 0.15 mg
same,Percent Inhibition (mean ± SEM),[1]; [6],14.82 ± 5.45%
same,Hair Mass Treated,[1]; [7],1.487 ± 0.16 mg
same,Percent Inhibition (mean ± SEM),[1]; [7],35.49 ± 4.62%
same,Hair Mass Treated,[1]; [8],1.113 ± 0.08 mg
same,Percent Inhibition (mean ± SEM),[1]; [8],50.94 ± 4.77%
same,Hair Mass Treated,[1]; [9],0.357 ± 0.15 mg
same,Percent Inhibition (mean ± SEM),[1]; [9],86.65 ± 4.81%
same,dose dependence of inhibition in hair growth,"[1]; topical application, dosage levels 0.25% to 5.00%",increased dosage level of the inhibitor provided an increased inhibition in hair growth
same,Hair Mass Treated (mg mean ± SEM),[1]; [10],0.357 ± 0.15 mg
same,Percent Inhibition (mean ± SEM),[1]; [10],86.65 ± 4.81%
N[C@@H](COC(=O)CCC(=O)O)C(=O)O [O-Succinyl serine],"Homocysteine, Percent of Untreated Control (100%)","[2]; dose 15%, pH 8.0",228%
same,"L-Cystathionine, Percent of Untreated Control (100%)","[2]; dose 15%, pH 8.0",66%
same,Hair Mass Treated (mg mean ± SEM),[1]; [11],0.710 ± 0.07 mg
same,Percent Inhibition (mean ± SEM),[1]; [11],63.58 ± 4.69%
"C#CCC(N)C(=O)O (racemic) [DL-Propargylglycine, D,L-2-amino-4-pentynoic acid]",Hair Mass Treated (mg mean ± SEM),[1]; [12],1.401 ± 0.14 mg
same,Percent Inhibition (mean ± SEM),[1]; [12],33.12 ± 5.59%
"CC(=O)OC[C@H]1O[C@@H](n2ncc(=O)[nH]c2=O)[C@H](OC(C)=O)[C@@H]1OC(C)=O [6-Azauridine-2',3',5'-triacetate]","L-Cystathionine, Percent of Untreated Control (100%)","[2]; dose 20%, pH 7.0",60%
same,Hair Mass Treated (mg mean ± SEM),[1]; [13],0.455 ± 0.05 mg
same,Percent Inhibition (mean ± SEM),[1]; [13],80.25 ± 2.37%

# Reference: US5455234A, “Inhibition of hair growth” (priority 1994, dated 1995)
